From PubChem BioAssay (NCI) come the findings set out here.

Where “and” joins values, the source holds several entries; their conditions need not be identical. Equal values may be shown once.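 Briefly, cells in 96-well plates were exposed to five compound concentrations for 48 h, and endpoints were estimated by linear interpolation. Here, GI50 denotes the concentration required for 50% inhibition of growth. TGI: concentration producing complete growth inhibition.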

Some test systems named below: HS 578T breast; MALME-3M melanoma; OVCAR-8 ovarian; PC-3 prostate; SF-295 CNS; SK-MEL-28 melanoma; T-47D breast; UACC-257 melanoma.
Holding throughout (assay): DTP human tumour cell line panel, 48 h

With `C[n+]1c(/C=C\c2ccc(Cl)cc2)ccc2ccccc21`, the GI50 in the assay on HS 578T breast was 27.4 µM; with MALME-3M melanoma, 11.9 µM; in the assay on OVCAR-8 ovarian, 6.82 µM; with PC-3 prostate, 13.3 µM; in the assay with SF-295 CNS, 13.8 µM; in the assay with SK-MEL-28 melanoma it was 13.6 µM. The GI50 was 21.8 µM with T-47D breast and 16.2 µM in the assay on UACC-257 melanoma. The total growth inhibition concentration (TGI) in the assay on HS 578T breast is over 100 µM; in the assay on MALME-3M melanoma, 36.8 µM; in the assay with OVCAR-8 ovarian, 91.1 µM; with PC-3 prostate it was over 100 µM; in the assay with SF-295 CNS, over 100 µM; in the assay with SK-MEL-28 melanoma it was 54.3 µM. For the same compound, the concentration for total growth inhibition (TGI) in the assay on T-47D breast is over 100 µM; with UACC-257 melanoma, 62.4 µM.

As to `CCOc1cccc(/C=N/NC(=O)c2ccc(Nc3ccnc(C(F)(F)F)c3)cc2)c1O`, the GI50 in the assay with HS 578T breast is 6.31 µM; in the assay with MALME-3M melanoma, 2.29 µM; with OVCAR-8 ovarian it was 0.599 µM; with PC-3 prostate, 0.607 µM; in the assay on SF-295 CNS it was 1.28 µM; in the assay on SK-MEL-28 melanoma it was 1.63 µM. For the same compound, the GI50 in the assay on T-47D breast is 0.984 µM; in the assay on UACC-257 melanoma, 0.728 µM. Also, the TGI in the assay on HS 578T breast was over 100 µM; in the assay on MALME-3M melanoma, over 47.8 µM; in the assay on OVCAR-8 ovarian it was over 72.5 µM; with PC-3 prostate, over 33.8 µM; in the assay on SF-295 CNS it was 40.6 µM; in the assay with SK-MEL-28 melanoma, over 58.5 µM. The TGI was 19.4 µM with T-47D breast and over 21.1 µM in the assay on UACC-257 melanoma.

With `CC1=C(C(=O)Nc2ccc(F)c(Cl)c2)C(c2ccccc2Cl)NC(=S)N1` (stereo not given), the GI50 with HS 578T breast was over 50 µM; with OVCAR-8 ovarian it was 42.7 µM; in the assay with PC-3 prostate, 20.2 µM; in the assay on SF-295 CNS, 39.8 µM; with SK-MEL-28 melanoma it was over 50 µM; in the assay on T-47D breast, over 50 µM. The GI50 in the assay on UACC-257 melanoma was 19.7 µM. For the same compound, the TGI in the assay with HS 578T breast, with OVCAR-8 ovarian, in the assay with PC-3 prostate, in the assay on SF-295 CNS, in the assay with SK-MEL-28 melanoma and in the assay on T-47D breast was over 50 µM in each case. Further, the TGI in the assay with UACC-257 melanoma stood at 49.7 µM.

As for `COc1ccc2c(c1)c(-c1ccc(-c3cn(S(=O)(=O)c4ccccc4)c4ccc(OC)cc34)s1)cn2S(=O)(=O)c1ccccc1`, the GI50 in the assay on HS 578T breast, in the assay with MALME-3M melanoma, with PC-3 prostate, in the assay with SF-295 CNS, in the assay on SK-MEL-28 melanoma and with T-47D breast was over 100 µM throughout. Moreover, the total growth inhibition concentration (TGI) in the assay on HS 578T breast, with MALME-3M melanoma, in the assay on PC-3 prostate, with SF-295 CNS, in the assay with SK-MEL-28 melanoma and with T-47D breast was over 100 µM throughout.

With `CCCCCCCCCCCCCC(=O)O[C@H]1CC[C@H](NC(=O)[C@H](OC)[C@H](O)[C@@H](O)[C@H](O)/C=C/C(C)C)C(=O)NC1`, the GI50 in the assay on HS 578T breast was 0.0112 µM; in the assay with OVCAR-8 ovarian it was 0.00181 µM; with PC-3 prostate it was 0.0152 µM. Further, the total growth inhibition concentration (TGI) is 7.97 µM and 38.7 µM with MALME-3M melanoma; 20.5 µM and 14.3 µM in the assay with OVCAR-8 ovarian; 51.2 µM and 12.7 µM in the assay on PC-3 prostate; 10.8 µM and 21.6 µM with SK-MEL-28 melanoma; over 100 µM in the assay with T-47D breast; 27.2 µM and 20.4 µM with UACC-257 melanoma.

With `Oc1ccccc1-c1nn(CNc2cccc(Cl)c2)c(=S)o1`, the GI50 was 69.1 µM in the assay with HS 578T breast; over 100 µM in the assay with OVCAR-8 ovarian; 32.9 µM with PC-3 prostate; over 100 µM in the assay on SF-295 CNS; 28.7 µM in the assay on T-47D breast; over 100 µM in the assay with UACC-257 melanoma. Moreover, the TGI in the assay with HS 578T breast, in the assay on OVCAR-8 ovarian, in the assay with PC-3 prostate, with SF-295 CNS, in the assay with T-47D breast and with UACC-257 melanoma was over 100 µM in each case.

In the case of `Cn1c2ccccc2c(=S)c2ccccc21`, the concentration for total growth inhibition (TGI) in the assay with HS 578T breast, with OVCAR-8 ovarian, in the assay on PC-3 prostate, in the assay with SF-295 CNS, in the assay on SK-MEL-28 melanoma and with T-47D breast was over 100 µM each time. The compound further returned a concentration for total growth inhibition (TGI) in the assay on UACC-257 melanoma of over 100 µM.

With `CC1=CC(=NC(=O)CBr)C=C/C1=N\S(=O)(=O)c1ccccc1`, the GI50 in the assay with HS 578T breast is 5.03 µM; in the assay on MALME-3M melanoma, 2.06 µM; in the assay with OVCAR-8 ovarian it was 3.29 µM; with PC-3 prostate it was 3.17 µM; in the assay with SF-295 CNS it was 15.8 µM; with SK-MEL-28 melanoma, 6.25 µM. Moreover, the GI50 with T-47D breast was 2.1 µM. In addition, the concentration for total growth inhibition (TGI) with HS 578T breast stood at 35.2 µM; with MALME-3M melanoma it was 5.89 µM; with OVCAR-8 ovarian it was 11.1 µM; with PC-3 prostate it was 13.2 µM; in the assay on SF-295 CNS, 33.1 µM; with SK-MEL-28 melanoma it was 19.4 µM. This compound also registered a TGI with T-47D breast of 5.04 µM.

Regarding `O=c1cc(-c2cccc(C(F)(F)F)c2)[nH]c2cc3c(cc12)OCO3`, the TGI in the assay with HS 578T breast was 17.5 µM; in the assay with MALME-3M melanoma, over 100 µM; with OVCAR-8 ovarian, 21.5 µM and 18.5 µM; in the assay on PC-3 prostate, over 100 µM; with SK-MEL-28 melanoma it was 50 µM and 53.9 µM; in the assay with T-47D breast it was over 100 µM. Also, the figures for the GI50 in the assay with OVCAR-8 ovarian, in the assay on SK-MEL-28 melanoma and in the assay with T-47D breast were 0.482 µM, 0.455 µM and over 100 µM, respectively.

Turning to `COc1ccccc1OCC(=O)Nc1sc2c(c1C(N)=O)CCC2`, the GI50 with HS 578T breast is over 100 µM; with MALME-3M melanoma, over 100 µM; in the assay on OVCAR-8 ovarian, 12.7 µM; in the assay with SK-MEL-28 melanoma, over 100 µM; with T-47D breast, over 100 µM. In addition, the TGI in the assay with HS 578T breast, with MALME-3M melanoma, with OVCAR-8 ovarian, with SK-MEL-28 melanoma and in the assay with T-47D breast was over 100 µM each time.

Take `COc1ccc(N(CC(=O)NCCC[Te]c2ccccc2)C(=O)c2ccccc2)cc1`: the GI50 in the assay on HS 578T breast was 2.97 µM; in the assay on MALME-3M melanoma, 16.7 µM; with OVCAR-8 ovarian, 3.03 µM; in the assay with PC-3 prostate, 2.68 µM; in the assay with SF-295 CNS, 1.68 µM; in the assay on SK-MEL-28 melanoma, 4.33 µM. In the assay on T-47D breast, the GI50 is 3.4 µM. Also, the TGI turned out to be 8.41 µM in the assay on HS 578T breast; 34.7 µM in the assay on MALME-3M melanoma; 8.12 µM in the assay on OVCAR-8 ovarian; 12.6 µM with PC-3 prostate; 8.17 µM in the assay on SF-295 CNS; 15.6 µM in the assay with SK-MEL-28 melanoma. This compound also showed a TGI in the assay on T-47D breast of 21.6 µM.

On to `CC1CC2(C)ON=C(c3ccccc3)N2c2ccccc2S1` (stereo not given), for which the GI50 in the assay on HS 578T breast was 46.2 µM; with OVCAR-8 ovarian it was 37.3 µM; with SF-295 CNS, 28.9 µM; in the assay on SK-MEL-28 melanoma it was 76.7 µM; in the assay with T-47D breast, 58.5 µM; in the assay with UACC-257 melanoma it was 36.8 µM. Moreover, the concentration for total growth inhibition (TGI) in the assay on SF-295 CNS turned out to be 79.1 µM.
